Molecules are shown by their SMILES. Where two headings read alike, the source gives them in different places.

These results are taken from US20110218217A1, “PIPERIDYLPROPIONAMIDE DERIVATIVES USEFUL FOR THE TREATMENT OF CNS DISORDERS INCLUDING DEPRESSION AND PANIC DISORDER” (NEUROSEARCH A/S, priority 2008, published 2011).

Holding throughout (assay type): biochemical
Test [1] has as its target T1, reuptake of noradrenaline (NA) in synaptosomes (Rattus norvegicus, UniProt Q63380).
T1 construct: in synaptosomes as described in WO 97/16451 (NeuroSearch A/S); from tissue
Briefly: Inhibition of NA reuptake in synaptosomes. As to the method:
(§1) Compounds were tested for their ability to inhibit the reuptake of the monoamine neurotransmitters dopamine (DA) noradrenaline (NA) and serotonine (5-HT) in synaptosomes as described in WO 97/16451 (NeuroSearch A/S).
(§2) The test values are given as IC50 (the concentration (μM) of the test substance which inhibits the specific binding of ^3H-DA, ^3H-NA, or ^3H-5-HT by 50%).

In test [2] the target is T2, reuptake of serotonine (5-HT) in synaptosomes (Rattus norvegicus, UniProt P31652).
T2 construct: in synaptosomes as described in WO 97/16451 (NeuroSearch A/S); from tissue
Briefly: Inhibition of 5-HT reuptake in synaptosomes. To be noted: 3H-5-HT, read-out: 5-HT-uptake IC50. As to the method:
as §1, §2

Test [3] addresses T3, reuptake of dopamine (DA) in synaptosomes (Rattus norvegicus, UniProt P23977).
T3 construct: in synaptosomes as described in WO 97/16451 (NeuroSearch A/S); from tissue
The experiment in a line: Inhibition of DA reuptake in synaptosomes. As to the method: as §1, §2

The mark [4] stands for this setting: 3H-NA, synaptosomes, read-out: NA-uptake IC50.
[5] abbreviates: 3H-DA, synaptosomes, read-out: DA-uptake IC50.

T3 sequence (P23977 whole entry): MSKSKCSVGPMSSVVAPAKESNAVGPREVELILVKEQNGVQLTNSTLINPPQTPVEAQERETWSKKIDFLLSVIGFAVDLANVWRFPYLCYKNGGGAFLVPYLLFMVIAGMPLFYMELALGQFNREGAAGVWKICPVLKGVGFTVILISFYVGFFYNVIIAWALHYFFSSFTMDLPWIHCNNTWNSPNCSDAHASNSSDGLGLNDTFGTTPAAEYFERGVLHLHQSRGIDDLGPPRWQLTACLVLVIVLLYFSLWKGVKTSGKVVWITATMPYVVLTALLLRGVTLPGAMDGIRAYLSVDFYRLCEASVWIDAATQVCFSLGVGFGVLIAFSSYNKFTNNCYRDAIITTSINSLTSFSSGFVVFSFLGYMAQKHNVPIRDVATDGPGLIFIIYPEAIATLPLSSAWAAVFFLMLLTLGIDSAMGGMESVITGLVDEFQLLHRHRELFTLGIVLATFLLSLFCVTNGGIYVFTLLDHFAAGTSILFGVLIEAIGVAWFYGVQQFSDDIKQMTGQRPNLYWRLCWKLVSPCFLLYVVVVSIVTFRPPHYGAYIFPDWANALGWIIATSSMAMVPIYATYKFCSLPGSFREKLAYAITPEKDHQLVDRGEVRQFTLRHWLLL
T2 sequence (P31652 whole entry): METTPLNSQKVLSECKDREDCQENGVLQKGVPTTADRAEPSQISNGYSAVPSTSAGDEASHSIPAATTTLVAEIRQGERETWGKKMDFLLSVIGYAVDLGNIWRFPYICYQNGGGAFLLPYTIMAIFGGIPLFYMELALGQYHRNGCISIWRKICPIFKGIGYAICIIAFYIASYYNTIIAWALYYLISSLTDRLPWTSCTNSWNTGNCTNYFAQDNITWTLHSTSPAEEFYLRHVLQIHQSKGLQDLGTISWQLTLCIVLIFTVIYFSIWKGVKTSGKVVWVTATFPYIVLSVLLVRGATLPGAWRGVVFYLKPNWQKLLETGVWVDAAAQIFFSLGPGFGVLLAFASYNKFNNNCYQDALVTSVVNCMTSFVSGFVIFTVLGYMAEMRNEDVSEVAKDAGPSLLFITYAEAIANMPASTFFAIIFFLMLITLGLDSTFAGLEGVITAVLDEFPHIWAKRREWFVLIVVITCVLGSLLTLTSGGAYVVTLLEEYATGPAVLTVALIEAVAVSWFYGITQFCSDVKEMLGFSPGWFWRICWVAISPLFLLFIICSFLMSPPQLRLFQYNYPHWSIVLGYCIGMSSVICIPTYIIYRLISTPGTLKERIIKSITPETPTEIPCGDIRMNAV
T1 sequence (Q63380 1-617): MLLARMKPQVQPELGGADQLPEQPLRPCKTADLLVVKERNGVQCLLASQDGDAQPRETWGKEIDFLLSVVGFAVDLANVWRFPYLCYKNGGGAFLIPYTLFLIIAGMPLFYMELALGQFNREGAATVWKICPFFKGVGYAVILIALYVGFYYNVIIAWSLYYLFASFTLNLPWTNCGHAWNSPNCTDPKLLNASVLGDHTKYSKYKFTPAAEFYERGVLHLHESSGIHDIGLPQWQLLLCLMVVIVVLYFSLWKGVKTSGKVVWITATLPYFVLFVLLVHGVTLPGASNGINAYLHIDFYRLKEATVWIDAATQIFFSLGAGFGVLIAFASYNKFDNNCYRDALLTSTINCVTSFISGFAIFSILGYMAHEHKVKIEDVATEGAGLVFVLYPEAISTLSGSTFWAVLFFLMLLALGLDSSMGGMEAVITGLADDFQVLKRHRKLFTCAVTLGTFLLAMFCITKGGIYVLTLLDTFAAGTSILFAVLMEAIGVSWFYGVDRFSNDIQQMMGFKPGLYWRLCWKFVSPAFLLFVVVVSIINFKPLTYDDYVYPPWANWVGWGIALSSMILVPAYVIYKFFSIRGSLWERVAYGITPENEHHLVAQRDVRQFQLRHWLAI

For `CCCN(C(=O)CCC1CCN(C)CC1)c1ccc(Cl)c(Cl)c1` [N-(3,4-Dichloro-phenyl)-3-(1-methyl-piperidin-4-yl)-N-propyl-propionamide], the IC50 is 1 nM in test [1], 820 nM in test [2] and 10 nM in test [3].

For the molecule `CCN(C(=O)CCC1CCN(C)CC1)c1ccc(Cl)c(Cl)c1` [N-(3,4-Dichloro-phenyl)-N-ethyl-3-(1-methyl-piperidin-4-yl)-propionamide], the IC50 was 6.5 nM in test [1] (setting [4]), more than 1000 nM in test [2] and 6.3 nM in test [3] (setting [5]).

In the case of `CCN(C(=O)CCC1CCNCC1)c1ccc(Br)c(Cl)c1` [N-(4-Bromo-3-chloro-phenyl)-N-ethyl-3-piperidin-4-yl-propionamide], the values for the IC50 in test [1] (setting [4]), in test [2] and in test [3] (setting [5]) were 2.6 nM, more than 1000 nM and 3.1 nM, respectively.

In the case of `CN1CCC(CCC(=O)N(C)c2ccc(Cl)c(Cl)c2)CC1` [N-(3,4-Dichloro-phenyl)-N-methyl-3-(1-methyl-piperidin-4-yl)-propionamide], the IC50 is 87 nM in test [1] (setting [4]), more than 1000 nM in test [2] and 330 nM in test [3] (setting [5]).

`CCN(C(=O)CCC1CCN(C)CC1)c1ccc(Br)c(Cl)c1` [N-(4-Bromo-3-chloro-phenyl)-N-ethyl-3-(1-methyl-piperidin-4-yl)-propionamide]: the half-maximal inhibitory concentration (IC50) in test [1] (setting [4]) is 1.3 nM; in test [2] it was more than 1000 nM; in test [3] (setting [5]), 6.8 nM.

Turning to `CCN(C(=O)CCC1CCNCC1)c1ccc(Cl)c(Cl)c1` [N-(3,4-Dichloro-phenyl)-N-ethyl-3-piperidin-4-yl-propionamide], the half-maximal inhibitory concentration (IC50) in test [1] (setting [4]) was 11 nM; in test [2] it was 2100 nM; in test [3] (setting [5]) it was 11 nM.

As for `CCCN(C(=O)CCC1CCNCC1)c1ccc(Cl)c(Cl)c1` [N-(3,4-Dichloro-phenyl)-3-piperidin-4-yl-N-propyl-propionamide], the IC50 in test [1] (setting [4]) turned out to be 1.9 nM; in test [2], 1400 nM; in test [3] (setting [5]), 9.8 nM.

For `CN(C(=O)CCC1CCNCC1)c1ccc(Cl)c(Cl)c1` [N-(3,4-Dichloro-phenyl)-N-methyl-3-piperidin-4-yl-propionamide], the results for the IC50 in test [1] (setting [4]), in test [2] and in test [3] (setting [5]) were 770 nM, more than 1000 nM and 220 nM, respectively.
